Source: patent US5438048A, “Methylenebisphosphonic acid derivatives” (Leiras Oy, priority 1990, dated 1995)

What was measured:
[1] = tested on: mouse calvaria; test: Parathyroid hormone stimulated bone resorption inhibition activity in vitro in mouse calvaria; type: cell-based
Description: (§1) In addition, the parathyroid hormone stimulated bone resorption inhibition activity in vitro in mouse calvaria, as well as inhibition of retinoid induced bone resorption in thyroparathyroidectomised rats in vivo were determined (Reynolds & Dingle (Calc Tiss Res 1970; 4:339, and Trechsel et al. (J Clin Invest 1987; 80:1679)) (Table 2).

[2] = Binding to hydroxyapatite (effect of bisphosphonates and their derivatives on hydroxyapatite)
[3] = Inhibition of hydroxyapatite growth (calcium phosphate crystal formation and precipitation inhibiting activity); type: biochemical; parameters: key to the marks not given beside the values; conditions: at 100 μM
[4] = tested on: retinoid induced bone resorption; test: Inhibition of retinoid induced bone resorption in thyroparathyroidectomised rats in vivo; conditions: 150 μmole/kg
Description: as §1

## CCCCC(O)(P(=O)(O)O)P(=O)(O)O [(1-Hydroxypentylidene)bisphosphonate, (1-Hydroxypentylidene)-bisphosphonate, reference compound]
[1]; 100 μm
  Inhibition of resorption (%): 56%

## CCCCC(O)(P(=O)(O)O)P(=O)(O)OC(C)C (stereo not shown) [(1-hydroxypentylidene)bisphosphonic acid monoisopropyl ester]
[2]
  Ki: 15.4 µM
[3]
  Inhibition of growth: ++

## CC(O)(P(=O)(O)O)P(=O)(O)O [Etidronate, reference compound]
[2]
  Ki: 0.9 µM

## CC(C)OP(=O)(O)C(C)(O)P(=O)(O)O (stereo not shown) [(1-Hydroxyethylidene)bisphosphonic acid monoisopropyl ester]
[2]
  Ki: 7.3 µM
[3]
  Inhibition of growth: +++

## O=P(O)(O)C(Cl)(Cl)P(=O)(O)O [Clodronate, reference compound]
[2]
  Ki: 1.3 µM
[3]
  Inhibition of growth: +++

## CCCCC(O)(P(=O)(O)O)P(=O)(O)OC (stereo not shown) [(1-hydroxypentylidene)bisphosphonic acid monomethyl ester]
[1]; 100 μm
  Inhibition of resorption (%): 7%
[1]; 1000 μm
  Inhibition of resorption (%): 47%
[2]
  Ki: 11.8 µM
[3]
  Inhibition of growth: +++
[4]
  Inhibition of resorption (%): 52%
